Experimental data taken from patent US10975056B2 (GlaxoSmithKline Intellectual Property Development Limited, priority 2016, dated 2021).

Assays:
[1] = molecular target: DNMT1 (Homo sapiens, UniProt P26358); experiment: DNMT1 biochemical activity, breaklight assay and/or SPA assay; conditions: binned activity in either the breaklight or the SPA assay
[2] = tested on: erythroid progenitor cells (EPCs); experiment: Fetal hemoglobin (HbF) ELISA in day 7 erythroid progenitor cells; type: cell-based, human; conditions: Homo sapiens, Erythroid progenitor cell, HbF ELISA, day 7 EPCs, 5 days; read-out: EPC ELISA (pEC50 category) (converted);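 further: for fetal hemoglobin induction normalized to vehicle-treated cells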
Outline: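 Read-out was OD450 from an HRP/TMB sandwich ELISA on lysates, normalized to DMSO-only control wells. Thawed day 7 EPCs from human marrow CD34+ cells had been treated for 5 days at 37° C with Compound A, 22 concentrations […].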

Sequence of DNMT1 (P26358 whole entry, looked up): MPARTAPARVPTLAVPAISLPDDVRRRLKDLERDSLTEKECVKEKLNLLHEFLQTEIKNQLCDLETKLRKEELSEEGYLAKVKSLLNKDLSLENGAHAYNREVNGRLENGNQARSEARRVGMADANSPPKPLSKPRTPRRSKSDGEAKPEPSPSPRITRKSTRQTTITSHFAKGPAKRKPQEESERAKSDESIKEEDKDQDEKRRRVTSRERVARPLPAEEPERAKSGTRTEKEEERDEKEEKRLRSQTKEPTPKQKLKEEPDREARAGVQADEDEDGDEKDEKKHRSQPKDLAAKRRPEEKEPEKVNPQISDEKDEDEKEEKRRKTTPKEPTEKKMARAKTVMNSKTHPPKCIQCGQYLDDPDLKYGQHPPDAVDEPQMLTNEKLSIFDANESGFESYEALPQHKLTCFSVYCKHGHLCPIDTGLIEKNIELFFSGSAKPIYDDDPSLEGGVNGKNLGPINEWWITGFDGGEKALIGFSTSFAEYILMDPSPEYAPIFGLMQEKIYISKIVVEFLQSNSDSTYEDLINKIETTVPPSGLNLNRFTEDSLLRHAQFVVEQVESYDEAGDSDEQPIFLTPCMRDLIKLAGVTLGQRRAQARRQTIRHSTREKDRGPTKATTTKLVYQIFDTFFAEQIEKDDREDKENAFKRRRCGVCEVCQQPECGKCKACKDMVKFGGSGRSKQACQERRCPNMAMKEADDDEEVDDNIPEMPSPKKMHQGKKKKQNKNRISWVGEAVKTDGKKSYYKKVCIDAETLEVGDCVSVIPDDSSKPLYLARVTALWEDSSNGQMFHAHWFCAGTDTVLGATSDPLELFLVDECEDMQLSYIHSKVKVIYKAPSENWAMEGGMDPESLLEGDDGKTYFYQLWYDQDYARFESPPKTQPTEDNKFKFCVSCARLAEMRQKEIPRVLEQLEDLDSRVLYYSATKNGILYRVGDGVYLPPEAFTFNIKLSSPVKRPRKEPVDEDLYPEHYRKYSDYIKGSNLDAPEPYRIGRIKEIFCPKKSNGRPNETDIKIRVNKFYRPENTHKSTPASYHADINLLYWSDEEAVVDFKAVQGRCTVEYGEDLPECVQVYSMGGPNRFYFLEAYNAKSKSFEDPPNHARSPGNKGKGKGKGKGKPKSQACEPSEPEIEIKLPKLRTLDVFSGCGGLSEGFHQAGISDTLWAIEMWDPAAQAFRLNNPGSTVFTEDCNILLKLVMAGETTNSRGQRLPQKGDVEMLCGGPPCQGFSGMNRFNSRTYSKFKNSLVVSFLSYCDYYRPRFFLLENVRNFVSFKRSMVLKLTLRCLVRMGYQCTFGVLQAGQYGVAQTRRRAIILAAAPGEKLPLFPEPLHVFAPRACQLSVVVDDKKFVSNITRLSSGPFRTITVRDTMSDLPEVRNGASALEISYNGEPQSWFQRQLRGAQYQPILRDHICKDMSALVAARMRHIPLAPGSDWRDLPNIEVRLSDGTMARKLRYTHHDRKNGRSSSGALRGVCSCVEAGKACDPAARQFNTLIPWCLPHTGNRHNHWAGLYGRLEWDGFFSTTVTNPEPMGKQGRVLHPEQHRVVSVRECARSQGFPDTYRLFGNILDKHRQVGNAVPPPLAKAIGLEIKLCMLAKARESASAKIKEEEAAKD

Structure (SMILES) | DNMT1 BioChemical (pIC50 category) [1] | EC50 [2] [nM]
CCc1c(C#N)c(SC(C(N)=O)c2ccccc2)nc(N2CCC(N3CCC[C@H]3CO)CC2)c1C#N (stereo partly drawn) [Example 441, 2-((3,5-dicyano-4-ethyl-6-(4-((S)-2-(hydroxymethyl)pyrrolidin-1-yl)piperidin-1-yl)pyridin-2-yl)thio)-2-phenylacetamide] | D (Category D: ≥6.5) | < 316
CCc1c(C#N)c(SC(C(N)=O)c2ccccc2)nc(N2CCC(N(C)CCO)CC2)c1C#N (stereo not drawn) [Example 443, 2-((3,5-dicyano-4-ethyl-6-(4-((2-hydroxyethyl)(methyl)amino)piperidin-1-yl)pyridin-2-yl)thio)-2-phenylacetamide] | D (Category D: ≥6.5) | < 316
CCc1c(C#N)c(SC(C(N)=O)c2ccccc2)nc(N2CCC(N(C)CC(C)(C)O)CC2)c1C#N (stereo not drawn) [Example 444, 2-((3,5-dicyano-4-ethyl-6-(4-((2-hydroxy-2-methylpropyl)(methyl)amino)piperidin-1-yl)pyridin-2-yl)thio)-2-phenylacetamide] | D (Category D: ≥6.5) | < 316
CCc1c(C#N)c(SC(C(N)=O)c2ccccc2)nc(N2CCC(CN3CCCC3)CC2)c1C#N (stereo not drawn) [Example 445, 2-((3,5-dicyano-4-ethyl-6-(4-(pyrrolidin-1-ylmethyl)piperidin-1-yl)pyridin-2-yl)thio)-2-phenylacetamide] | D (Category D: ≥6.5) | < 316
CCc1c(C#N)c(SC(C(N)=O)c2ccccc2)nc(N2CCC(NCC(C)(C)OC)CC2)c1C#N (stereo not drawn) [Example 446, 2-((3,5-dicyano-4-ethyl-6-(4-((2-methoxy-2-methylpropyl)amino)piperidin-1-yl)pyridin-2-yl)thio)-2-phenylacetamide] | D (Category D: ≥6.5) | < 316
CCc1c(C#N)c(SC(C(N)=O)c2ccccc2)nc(N2CCC(NCC(C)(C)O)CC2)c1C#N (stereo not drawn) [Example 447, 2-((3,5-dicyano-4-ethyl-6-(4-((2-hydroxy-2-methylpropyl)amino)piperidin-1-yl)pyridin-2-yl)thio)-2-phenylacetamide] | D (Category D: ≥6.5) | < 316
CCc1c(C#N)c(SC(C(N)=O)c2ccccc2)nc(N2CCC(NC3CCC3)CC2)c1C#N (stereo not drawn) [Example 448, 2-((3,5-dicyano-6-(4-(cyclobutylamino)piperidin-1-yl)-4-ethylpyridin-2-yl)thio)-2-phenylacetamide] | D (Category D: ≥6.5) | < 316
CCc1c(C#N)c(SC(C(N)=O)c2ccccc2)nc(N2CCC(NCC3(C)COC3)CC2)c1C#N (stereo not drawn) [Example 449, 2-((3,5-dicyano-4-ethyl-6-(4-(((3-methyloxetan-3-yl)methyl)amino)piperidin-1-yl)pyridin-2-yl)thio)-2-phenylacetamide] | D (Category D: ≥6.5) | < 316
CCc1c(C#N)c(SC(C(N)=O)c2ccccc2)nc(N2CCC(N3CCN(C)CC3)CC2)c1C#N (stereo not drawn) [Example 450, 2-((3,5-dicyano-4-ethyl-6-(4-(4-methylpiperazin-1-yl)piperidin-1-yl)pyridin-2-yl)thio)-2-phenylacetamide] | D (Category D: ≥6.5) | < 316
CCc1c(C#N)c(SC(C(N)=O)c2ccccc2)nc(N2CCC(N3CCC[C@H]3C)CC2)c1C#N (stereo partly drawn) [Example 451, 2-((3,5-dicyano-4-ethyl-6-(4-((R)-2-methylpyrrolidin-1-yl)piperidin-1-yl)pyridin-2-yl)thio)-2-phenylacetamide] | D (Category D: ≥6.5) | < 316
CCc1c(C#N)c(SC(C(N)=O)c2ccccc2)nc(N2CCC(N3[C@H](C)CC[C@@H]3C)CC2)c1C#N (stereo partly drawn) [Example 452, 2-((3,5-dicyano-6-(4-((2R,5S)-2,5-dimethylpyrrolidin-1-yl)piperidin-1-yl)-4-ethylpyridin-2-yl)thio)-2-phenylacetamide] | D (Category D: ≥6.5) | < 316
CCc1c(C#N)c(SC(C(N)=O)c2ccccc2)nc(N2CCC(N3CCC[C@@H]3C)CC2)c1C#N (stereo partly drawn) [Example 453, 2-((3,5-dicyano-4-ethyl-6-(4-((S)-2-methylpyrrolidin-1-yl)piperidin-1-yl)pyridin-2-yl)thio)-2-phenylacetamide] | D (Category D: ≥6.5) | < 316
CCc1c(C#N)c(SC(C(N)=O)c2ccccc2)nc(N2CCC(N(C)C3CCC3)CC2)c1C#N (stereo not drawn) [Example 454, 2-((3,5-dicyano-6-(4-(cyclobutyl(methyl)amino)piperidin-1-yl)-4-ethylpyridin-2-yl)thio)-2-phenylacetamide] | D (Category D: ≥6.5) | < 316
CCc1c(C#N)c(SC(C(N)=O)c2ccccc2)nc(N2CCC(NCc3ccccc3)CC2)c1C#N (stereo not drawn) [Example 455, 2-(6-(4-(benzylamino)piperidin-1-yl)-3,5-dicyano-4-ethylpyridin-2-ylthio)-2-phenylacetamide] | D (Category D: ≥6.5) | < 316
CCc1c(C#N)c(SC(C(N)=O)c2ccccc2)nc(N2CCC(NCc3cccc(OC)n3)CC2)c1C#N (stereo not drawn) [Example 456, 2-((3,5-dicyano-4-ethyl-6-(4-(((6-methoxypyridin-2-yl)methyl)amino)piperidin-1-yl)pyridin-2-yl)thio)-2-phenylacetamide] | D (Category D: ≥6.5) | < 316
CCc1c(C#N)c(SC(C(N)=O)c2ccccc2)nc(N2CCC(N3CC[C@H](F)C3)CC2)c1C#N (stereo partly drawn) [Example 457, 2-((3,5-dicyano-4-ethyl-6-(4-((S)-3-fluoropyrrolidin-1-yl)piperidin-1-yl)pyridin-2-yl)thio)-2-phenylacetamide] | D (Category D: ≥6.5) | < 316

The remaining lines, values ahead:

DNMT1 BioChemical (pIC50 category) [1] | EC50 [2] [nM] | Structure (SMILES)
D (Category D: ≥6.5) | < 316 | CCc1c(C#N)c(SCc2ccc(N(C)S(C)(=O)=O)cc2)nc(N(C)CCNCC(C)(C)C)c1C#N [Example 458, N-(4-(((3,5-dicyano-4-ethyl-6-(methyl(2-(neopentylamino)ethyl)amino)pyridin-2-yl)thio)methyl)phenyl)-N-methylmethanesulfonamide]
D (Category D: ≥6.5) | < 316 | CCc1c(C#N)c(SC(C(N)=O)c2ccccc2)nc(N(C)CCN2CCC[C@H]2C)c1C#N (stereo partly drawn) [Example 459, 2-((3,5-dicyano-4-ethyl-6-(methyl(2-((R)-2-methylpyrrolidin-1-yl)ethyl)amino)pyridin-2-yl)thio)-2-phenylacetamide]
D (Category D: ≥6.5) | < 316 | CCc1c(C#N)c(SC(C(N)=O)c2ccccc2)nc(N2CCC(N3CC[C@@H](F)C3)CC2)c1C#N (stereo partly drawn) [Example 460, 2-((3,5-dicyano-4-ethyl-6-(4-((R)-3-fluoropyrrolidin-1-yl)piperidin-1-yl)pyridin-2-yl)thio)-2-phenylacetamide]
D (Category D: ≥6.5) | < 316 | CCc1c(C#N)c(SCc2ccc(N(C)S(C)(=O)=O)cc2)nc(N(C)CCN(C)CCOC)c1C#N [Example 461]
D (Category D: ≥6.5) | < 316 | CCc1c(C#N)c(SC(C(N)=O)c2ccccc2)nc(N2CCC(N3[C@@H](C)CC[C@@H]3C)CC2)c1C#N (stereo partly drawn) [Example 462, 2-((3,5-dicyano-6-(4-((2S,5S)-2,5-dimethylpyrrolidin-1-yl)piperidin-1-yl)-4-ethylpyridin-2-yl)thio)-2-phenylacetamide]
D (Category D: ≥6.5) | < 316 | CCc1c(C#N)c(SC(C(N)=O)c2ccccc2)nc(N(C)CCN2CCC[C@@H]2C)c1C#N (stereo partly drawn) [Example 463, 2-((3,5-dicyano-4-ethyl-6-(methyl(2-((S)-2-methylpyrrolidin-1-yl)ethyl)amino)pyridin-2-yl)thio)-2-phenylacetamide]
D (Category D: ≥6.5) | < 316 | CCc1c(C#N)c(SC(C(N)=O)c2ccccc2)nc(N2CCC(NCc3ccc(OC)nc3)CC2)c1C#N (stereo not drawn) [Example 467, 2-((3,5-dicyano-4-ethyl-6-(4-(((6-methoxypyridin-3-yl)methyl)amino)piperidin-1-yl)pyridin-2-yl)thio)-2-phenylacetamide]
D (Category D: ≥6.5) | < 316 | CCNCCN(C)c1nc(SC(C(N)=O)c2ccccc2)c(C#N)c(CC)c1C#N (stereo not drawn) [Example 468, 2-(3,5-dicyano-4-ethyl-6-((2-(ethylamino)ethyl)(methyl)amino)pyridin-2-ylthio)-2-phenylacetamide]
D (Category D: ≥6.5) | < 316 | CCc1c(C#N)c(SC(C(N)=O)c2ccccc2)nc(N2CCC(CN3CCN(C)CC3)CC2)c1C#N (stereo not drawn) [Example 469, 2-((3,5-dicyano-4-ethyl-6-(4-((4-methylpiperazin-1-yl)methyl)piperidin-1-yl)pyridin-2-yl)thio)-2-phenylacetamide]
D (Category D: ≥6.5) | < 316 | CCc1c(C#N)c(SC(C(N)=O)c2ccccc2)nc(N(C)CCNC)c1C#N (stereo not drawn) [Example 470, 2-((3,5-dicyano-4-ethyl-6-(methyl(2-(methylamino)ethyl)amino)pyridin-2-yl)thio)-2-phenylacetamide]
D (Category D: ≥6.5) | < 316 | CCc1c(C#N)c(SCc2ccc(N(C)S(C)(=O)=O)cc2)nc(N(C)CCNC)c1C#N [Example 471, N-(4-(((3,5-dicyano-4-ethyl-6-(methyl(2-(methylamino)ethyl)amino)pyridin-2-yl)thio)methyl)phenyl)-N-methylmethanesulfonamide]
